Source: patent US8524917B2, “6-substituted indole-3-carboxylic acid amide compounds having sphingosine-1-phosphate (S1P) receptor antagonist biological activity” (Allergan, Inc., priority 2007, dated 2013)
pIC50: −log10 of the molar value. Read-outs that look alike come from different tables or passages of the source.

Molecular target: human S1P3 receptor (Homo sapiens (Human), UniProt Q99500)
Assay: Activation or block of activation of human S1P3 receptor, Ca+2 FLIPR assay
Format: cell-based
Description: Compounds were assessed for their ability to activate or block activation of the human S1P3 receptor in T24 cells stably expressing the human S1P3 receptor. Ten thousand cells/well were plated into 384-well poly-D-lysine coated plates one day prior to use. The growth media for the S1P3 receptor expressing cell line was McCoy's 5A medium supplemented with 10% charcoal-treated fetal bovine serum (FBS), 1% antibiotic-antimycotic and 400 μg/ml geneticin. On the day of the experiment, the cells were washed twice with Hank's Balanced Salt Solution supplemented with 20 mM HEPES (HBSS/Hepes buffer). […] Extracellular dye was removed by washing the cell plates four times prior to placing the plates in the FLIPR (Fluorometric Imaging Plate Reader, Molecular Devices). Ligands were diluted in HBSS/Hepes buffer and prepared in 384-well microplates. The positive control, Sphingosine-1-Phosphate (S1P), was diluted in HBSS/Hepes buffer with 4 mg/ml fatty acid free bovine serum albumin. The FLIPR transferred 12.5 μl from the ligand microplate to the cell plate and took fluorescent measurements for 75 seconds, taking readings every second, and then for 2.5 minutes, taking readings every 10 seconds. […] IC50 values were determined through a […] analysis using the Levenburg Marquardt algorithm.

[1] = T24 cells stably expressing the human S1P3 receptor, FLIPR Ca+2 response, 0.61 nM to 10,000 nM, read-out: S1P3 IC50
[2] = T24 cells stably expressing the human S1P3 receptor, value in brackets

Sequence of human S1P3 receptor (Q99500 whole entry): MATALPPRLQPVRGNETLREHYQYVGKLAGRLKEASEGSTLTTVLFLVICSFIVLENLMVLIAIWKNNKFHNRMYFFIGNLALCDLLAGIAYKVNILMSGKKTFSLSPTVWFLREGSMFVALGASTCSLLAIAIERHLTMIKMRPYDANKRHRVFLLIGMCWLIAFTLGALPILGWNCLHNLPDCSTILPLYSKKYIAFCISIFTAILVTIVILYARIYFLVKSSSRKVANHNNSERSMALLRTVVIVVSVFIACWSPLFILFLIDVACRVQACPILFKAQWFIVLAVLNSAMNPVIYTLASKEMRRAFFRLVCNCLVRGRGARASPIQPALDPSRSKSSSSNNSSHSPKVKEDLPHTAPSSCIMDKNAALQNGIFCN

| Structure (SMILES) | pIC50 [1] | S1P3 (% inh) [2] | further results |
| --- | --- | --- | --- |
| CC(C)c1c(C(=O)NCc2ccc(F)c(F)c2)c2ccc(O)cc2n1Cc1ccccc1 [Compound 8, 1-Benzyl-N-(3,4-difluorobenzyl)-6-hydroxy-2-isopropyl-1H-indole-3-carboxamide] | 5.51 | 71% |  |
| CC(C)c1c(C(=O)NCc2ccc(F)c(F)c2)c2ccc(C(=O)O)cc2n1Cc1ccccc1 | < 5.00 | 40% |  |
| CC(C)c1c(C(=O)NCc2ccc(F)c(F)c2)c2ccc(OCc3ccccc3)cc2n1Cc1ccccc1 [Compound 15, 1-Benzyl-6-(benzyloxy)-N-(3,4-difluorobenzyl)-2-isopropyl-1H-indole-3-carboxamide] |  |  | S1P3 (% inh): 260 nM (100) %; pIC50 (read-out: S1P3 IC50): 6.59 |
| CC(C)c1c(C(=O)NCc2ccc(F)c(F)c2)c2ccc(NC3=NCCS3)cc2n1Cc1ccccn1 [Compound 184, N-(3,4-Difluorobenzyl)-6-(4,5-dihydrothiazol-2-ylamino)-2-isopropyl-1-(pyridin-2-ylmethyl)-1H-indole-3-carboxamide] | < 5.08 | 80% |  |
| CC(C)c1c(C(=O)NCc2ccc(F)c(F)c2)c2ccc(NC3CCOC3)cc2n1Cc1ccccc1 (stereo not shown) [Compound 126, 1-Benzyl-N-(3,4-difluorobenzyl)-2-isopropyl-6-(tetrahydrofuran-3-ylamino)-1H-indole-3-carboxamide] | 6.75 | 100% |  |
| CCOC(=O)c1ccc2c(C(=O)NCc3ccccc3)c(C(C)C)n(Cc3ccccc3)c2c1 | 8.05 | 96% |  |
| CC(C)c1c(C(=O)NCc2ccc(F)c(F)c2)c2ccc(OC3CCCO3)cc2n1Cc1ccccc1 (stereo not shown) [Compound 27, 1-Benzyl-N-(3,4-difluorobenzyl)-2-isopropyl-6-(tetrahydrofuran-2-yloxy)-1H-indole-3-carboxamide] |  |  | Kb: 11 nM; S1P3 (% inh): 6 nM (100) 11 nM %; pIC50 (read-out: S1P3 IC50): 8.22 |
| CC(C)c1c(C(=O)NCc2ccc(F)c(F)c2)c2ccc([N+](=O)[O-])cc2n1Cc1ccccc1 [Compound 124, 1-Benzyl-N-(3,4-difluorobenzyl)-2-isopropyl-6-nitro-1H-indole-3-carboxamide] |  |  | S1P3 (% inh): 242 nM (90) %; pIC50 (read-out: S1P3 IC50): 6.62 |
| CCOC(=O)c1ccc2c(C(=O)NCc3cncc(F)c3)c(C(C)C)n(Cc3ccccc3)c2c1 [Compound 44, Ethyl 1-Benzyl-3-((5-fluoropyridin-3-yl)methylcarbamoyl)-2-isopropyl-1H-indole-6-carboxylate] |  |  | S1P3 (% inh): 24 nM (100) %; pIC50 (read-out: S1P3 IC50): 7.62 |
| CC(C)COc1ccc2c(C(=O)NCc3ccc(F)c(F)c3)c(C(C)C)n(Cc3ccccc3)c2c1 [Compound 13, 1-Benzyl-N-(3,4-difluorobenzyl)-6-isobutoxy-2-isopropyl-1H-indole-3-carboxamide] | 8.92 | 100% | Kb (T24 cells stably expressing the human S1P3 receptor, second concentration in the cell, read-out: S1P3 Kb): 1.6 nM |
| CC(C)c1c(C(=O)NCc2ccc(F)c(F)c2)c2ccc(N)cc2n1Cc1ccccc1 [Compound 125, 6-Amino-1-benzyl-N-(3,4-difluorobenzyl)-2-isopropyl-1H-indole-3-carboxamide] | 5.77 | 90% |  |
| CCCOc1ccc2c(C(=O)NCc3cccnc3)c(C(C)C)n(Cc3ccccn3)c2c1 | 5.92 | 99% |  |
| CC(C)c1c(C(=O)NCc2ccc(F)c(F)c2)c2ccc(N3CCCC3=O)cc2n1Cc1ccccc1 [Compound 128, 1-Benzyl-N-(3,4-difluorobenzyl)-2-isopropyl-6-(2-oxopyrrolidin-1-yl)-1H-indole-3-carboxamide] | 6.30 | 99% |  |
| CC(C)Oc1ccc2c(C(=O)NCc3ccc(F)c(F)c3)c(CN(C)C)n(Cc3ccccn3)c2c1 [Compound 98, N-(3,4-Difluorobenzyl)-2-((dimethylamino)methyl)-6-isopropoxy-1-(pyridin-2-ylmethyl)-1H-indole-3-carboxamide] | 6.20 | 100% |  |
| CC(C)c1c(C(=O)NCc2ccc(F)c(F)c2)c2ccc(-c3nnco3)cc2n1Cc1ccccc1 [Compound 89, 1-Benzyl-N-(3,4-difluorobenzyl)-2-isopropyl-6-(1,3,4-oxadiazol-2-yl)-1H-indole-3-carboxamide] | 7.23 | 98% |  |
| CC(C)c1c(C(=O)NCc2ccc(F)c(F)c2)c2ccc(Oc3ncc(Br)s3)cc2n1Cc1ncco1 [Compound 215, 6-(5-Bromothiazol-2-yloxy)-N-(3,4-difluorobenzyl)-2-isopropyl-1-(oxazol-2-ylmethyl)-1H-indole-3-carboxamide] | 7.64 | 99% |  |

| Structure (SMILES) | pIC50 [1] | S1P3 (% inh) [2] | further results |
| --- | --- | --- | --- |
| CC(C)c1c(C(=O)NCc2ccc(F)c(F)c2)c2ccc(NC3CCCC3)cc2n1Cc1ccccn1 [Compound 183, 6-(Cyclopentylamino)-N-(3,4-difluorobenzyl)-2-isopropyl-1-(pyridin-2-ylmethyl)-1H-indole-3-carboxamide] | 6.82 | 100% |  |
| CC(C)c1c(C(=O)NCc2ccc(F)c(F)c2)c2ccc(OCCN(C)C)cc2n1Cc1ccccc1 [Compound 18, 1-Benzyl-N-(3,4-difluorobenzyl)-6-(2-(dimethylamino)ethoxy)-2-isopropyl-1H-indole-3-carboxamide] | 6.62 | 94% |  |
| CC(C)c1c(C(=O)NCc2ccc(F)c(F)c2)c2ccc(OCc3ncco3)cc2n1Cc1ccccc1 [Compound 131, 1-Benzyl-N-(3,4-difluorobenzyl)-2-isopropyl-6-(1,3-oxazol-2-ylmethoxy)-1H-indole-3-carboxamide] | 6.05 | 96% |  |
| CC(C)c1c(C(=O)NCc2cncc(F)c2)c2ccc(C3=N[C@@H](C)CO3)cc2n1Cc1ccccc1 [Compound 72, (S)-1-Benzyl-N-((5-fluoropyridin-3-yl)methyl)-2-isopropyl-6-(4-methyl-4,5-dihydrooxazol-2-yl)-1H-indole-3-carboxamide] |  |  | S1P3 (% inh): 43 nM (99) %; pIC50 (read-out: S1P3 IC50): 7.37 |
| CCOC(=O)c1ccc2c(C(=O)NCc3ccc(F)cc3)c(C(C)C)n(Cc3ccccn3)c2c1 [Compound 50, Ethyl 3-(4-Fluorobenzylcarbamoyl)-2-isopropyl-1-(pyridin-2-ylmethyl)-1H-indole-6-carboxylate] | 7.16 | 100% |  |
| CC(C)c1c(C(=O)NCc2ccc(C(F)(F)F)nc2)c2ccc(OC3CCCC3)cc2n1Cc1ccccn1 [Compound 142, 6-(Cyclopentyloxy)-2-isopropyl-1-(pyridin-2-ylmethyl)-N-((6-(trifluoromethyl)pyridin-3-yl)methyl)-1H-indole-3-carboxamide] | 7.32 | 99% |  |
| CC(C)c1c(C(=O)NCc2ccc(F)c(F)c2)c2ccc(C3=N[C@H](C)CO3)cc2n1Cc1ccccc1 [Compound 74, (R)-1-Benzyl-N-(3,4-difluorobenzyl)-2-isopropyl-6-(4-methyl-4,5-dihydrooxazol-2-yl)-1H-indole-3-carboxamide] | 7.31 | 99% |  |
| CC(C)Oc1ccc2c(C(=O)NCc3ccc(F)c(F)c3)c(C(C)C)n(Cc3cccnc3)c2c1 [Compound 154, N-(3,4-Difluorobenzyl)-6-isopropoxy-2-isopropyl-1-(pyridin-3-ylmethyl)-1H-indole-3-carboxamide] | 7.82 | 100% |  |
| CC(C)COC(=O)c1ccc2c(C(=O)NCc3ccc(F)c(F)c3)c(C(C)C)n(Cc3ccccc3)c2c1 |  | 12 nM (97) % | pIC50: 7.92 |
| CC(C)COc1ccc2c(C(=O)NCc3cncc(F)c3)c(C(C)C)n(Cc3ccccn3)c2c1 [Compound 149, N-((5-Fluoropyridin-3-yl)methyl)-6-isobutoxy-2-isopropyl-1-(pyridin-2-ylmethyl)-1H-indole-3-carboxamide] | 7.54 | 100% |  |
| COc1ccc2c(C(=O)NCc3ccc(F)c(F)c3)c(C(C)C)n(Cc3ccccc3)c2c1 [Compound 7, 1-Benzyl-N-(3,4-difluorobenzyl)-2-isopropyl-6-methoxy-1H-indole-3-carboxamide] | 6.25 | 98% |  |
| CC(C)c1c(C(=O)NCc2ccc(F)c(F)c2)c2ccc(O)cc2n1Cc1cccnc1 [Compound 151, N-(3,4-Difluorobenzyl)-6-hydroxy-2-isopropyl-1-(pyridin-3-ylmethyl)-1H-indole-3-carboxamide] |  |  | S1P3 (% inh): 65 nM (98) %; pIC50 (read-out: S1P3 IC50): 7.19 |
| CC(C)NCc1ccc2c(C(=O)NCc3ccc(F)c(F)c3)c(C(C)C)n(Cc3ccccc3)c2c1 | 5.64 | 84% |  |
| CC(C)COc1ccc2c(C(=O)NCc3cccnc3)c(C(C)C)n(Cc3ccccn3)c2c1 |  |  | pIC50: 6.91; S1P3 (% inh): 124 nM (99) % |
| COC(=O)c1c(C(=O)NCc2ccc(F)c(F)c2)c2ccc(OC(C)C)cc2n1Cc1ccccn1 [Compound 226, Methyl 3-(3,4-Difluorobenzylcarbamoyl)-6-isopropoxy-1-(pyridin-2-ylmethyl)-1H-indole-2-carboxylate] | 7.06 | 100% |  |
| COCOc1ccc2c(C(=O)NCc3ccc(F)c(F)c3)c(C(C)C)n(Cc3ccccc3)c2c1 [Compound 26, 1-Benzyl-N-(3,4-difluorobenzyl)-2-isopropyl-6-(methoxymethoxy)-1H-indole-3-carboxamide] |  |  | Kb: 13 nM; S1P3 (% inh): 39 nM (100) 13 nM %; pIC50 (read-out: S1P3 IC50): 7.41 |
